Reference: patent US20050026979A1, “Methods for treating inflammation and inflammation-associated diseases with a statin and ether” (priority 2003, published 2005)

Test system: monosodium iodoacetate ("MIA")-induced knee joint arthritis
Test: Monosodium iodoacetate (MIA)-induced osteoarthritis joint pain model, acute dosing paradigm (hind paw weight distribution, incapacitance tester)
Assay type: in vivo, rat (male Wistar)
Conditions: for Change in Hind Paw Weight Distribution: Day 7 post-MIA, mean, n=6
Description: Monosodium Iodoacetate (“MIA”)-Induced Osteoarthritis:
Male Wistar rats (175-200 g) were housed in solid bottom isolator cages, […], with corncob bedding on a 12 hour:12 hour light:dark cycle. Animals were fed standard rat chow with water available ad libitum.
The rats were anesthetized with 5% volume/volume (“v/v”) isoflurane gas and maintained with 2% v/v isoflurane gas. The anesthetized rats were given a single intra-articular injection of 1 mg of MIA through the infrapatellar ligament of the right knee. MIA was dissolved in physiologic saline and administered in a volume of 50 μL. The contralateral control knee was injected with 50 μL of physiologic saline. Administration of isoflurane gas was discontinued, and the rats became fully conscious about 5 minutes later.
Shifts in hind paw weight distribution from the right to the left hind paws supporting the right (arthritic) and the left (contralateral control) hind leg knee joints were utilized as an index of joint pain and as a measure of compound efficacy. An incapacitance tester (Model 2KG, Linton Instrumentation, UK) was employed for determination of hind paw weight distribution. Each data point is the mean of three readings of 5 seconds duration.
The acute dosing paradigm used herein relates to osteoarthritis signs such as mobility and joint function and osteoarthritis symptoms such as joint pain. In this dosing paradigm, changes in hind paw weight distribution were determined early on Day 7 post-MIA injection, as described previously, to establish a baseline pain reading. […] Changes in hind paw weight distribution were determined 2, 4 and 6 hours post-compound administration.
MIA was injected into the right knee and saline into the left knee of all rats on Day 0. […] Two, four, and six hours later, the rats were re-assessed.
Statistically significant differences were determined by one-way ANOVA followed by Dunnett's multiple comparisons procedure. Data are expressed as mean±SEM. N=6 rats per group.

## CC(C)(CCCCOCCCCC(C)(C)C(=O)[O-])C(=O)[O-].[Ca+2] [Compound A, 6-(5-carboxy-5-methyl-hexyloxy)-2,2-dimethyl-hexanoic acid calcium salt]
2 hr post-dose, Compound A 10 mg/kg PO
  Change in Hind Paw Weight Distribution: 21 g
4 hr post-dose, Compound A 10 mg/kg PO
  Change in Hind Paw Weight Distribution: 15 g
6 hr post-dose, Compound A 10 mg/kg PO
  Change in Hind Paw Weight Distribution: 21 g
Compound A 10 mg/kg PO, 2, 4 and 6 hour post-dose time points
  Effect on shift in weight bearing potential (joint pain) versus vehicle, in words: altered the shift in weight bearing potential (joint pain) in arthritic rats at the 2, 4 and 6 hour post-dose time points in a statistically significant manner
Pre-Dose (Baseline), group later given Compound A 10 mg/kg PO
  Change in Hind Paw Weight Distribution: 32 g
